Data set [1] concerns the target human BACE1 (Homo sapiens, UniProt P56817). The data set is described as follows: Fluorescent kinetic assay, BACE1 inhibition (substrate WABC-6 cleavage). In kind it is biochemical. The settings on record: for IC50: 10 nM enzyme, 25 μM substrate WABC-6, pH 4.5, room temperature; for inhibition at 25 µM: read-out: BACE1 % inhibition at 25 μM, at 25 μM inhibitor. The method, then: Evaluation of BACE-1 Binding Affinity of Test Compounds
1. Fluorescent Kinetic Assays
Dilution and mixing steps: total reaction volume: 100 μL
100 μM substrate dilution in 1X PBS was prepared, and
Fluorescence Readings: Readings at λex 320 nm and λem 420 nm are taken every 40 sec for 30 min at room temperature and the linear slope for substrate cleavage rate (vi) determined.

Structures can show the parent of a compound that is named as a salt.

The source of these data is patent publication US7563796B2, “Diphenylimidazopyrimidines as inhibitors of β-secretase” (Wyeth, priority 2005, dated 2009).

human BACE1, sequence (P56817 46-501): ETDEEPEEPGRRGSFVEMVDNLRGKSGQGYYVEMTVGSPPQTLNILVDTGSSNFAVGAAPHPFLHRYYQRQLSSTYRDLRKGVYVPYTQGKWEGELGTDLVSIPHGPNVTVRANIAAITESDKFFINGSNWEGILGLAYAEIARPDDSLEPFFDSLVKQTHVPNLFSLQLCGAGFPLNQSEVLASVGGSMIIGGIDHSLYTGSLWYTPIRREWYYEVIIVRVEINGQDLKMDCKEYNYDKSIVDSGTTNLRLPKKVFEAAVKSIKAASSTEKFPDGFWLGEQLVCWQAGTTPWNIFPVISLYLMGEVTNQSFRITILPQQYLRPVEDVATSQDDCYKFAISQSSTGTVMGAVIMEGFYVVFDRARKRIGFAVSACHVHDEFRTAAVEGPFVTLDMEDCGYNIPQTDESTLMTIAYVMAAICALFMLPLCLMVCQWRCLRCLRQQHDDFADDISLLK

For the compound `CCC(=O)Nc1cccc(C2(c3ccc(OC(F)(F)F)cc3)N=C(N)N3CCCN=C32)c1` (stereo not shown) (as salt: hydrochloride) [Example 16, N-{3-[6-Amino-8-(4-trifluoromethoxy-phenyl)-2,3,4,8-tetrahydroimidazo[1,5-a]pyrimidin-8-yl]-phenyl}-propionamide hydrochloride], the melting point (usually the temperature, or range, at which the solid turns liquid) lay within 148 to 150 °C.

As to `CC(C)(C)c1ccc(C2(c3ccccc3)N=C(N)N3CCCN=C32)cc1` (stereo not shown) [Example 1, 8-(4-tert-Butylphenyl)-8-phenyl-2,3,4,8-tetrahydroimidazol[1,5-a]pyrimidin-6-amine], the melting point was 139 °C. For the same compound, the IC50 (commonly the concentration that gives 50% inhibition) in data set [1] was determined as 30 µM.

In turn, `NC1=NC(c2ccccc2)(c2cccc(Cc3ccccc3)c2)C2=NCCCN12` (stereo not shown) [Example 2, 8-(3-Benzylphenyl)-8-phenyl-2,3,4,8-tetrahydroimidazol[1,5-a]pyrimidin-6-amine] yielded a melting point of 80 °C. This compound also displayed an IC50 in data set [1] of 5.3 µM.

Turning to `NC1=NC(c2ccccc2)(c2cccc(Oc3ccc(F)cc3)c2)C2=NCCCN12` (stereo not shown) [Example 3, 8-[3-(4-Fluorophenoxy)phenyl]-8-phenyl-2,3,4,8-tetrahydroimidazo[1,5-a]pyrimidin-6-amine], the melting point amounted to 165 °C. Besides, the IC50 in data set [1] was found to be 4.7 µM.

In the case of `COc1ccc(Cc2cccc(C3(c4ccccc4)N=C(N)N4CCCN=C43)c2)cc1` (stereo not shown) [Example 4, 8-[3-(4-Methoxybenzyl)phenyl]-8-phenyl-2,3,4,8-tetrahydroimidazo[1,5-a]pyrimidin-6-amine], the melting point stood at 132 °C. For the same compound, in data set [1], 7.1 µM corresponded to half-maximal inhibition (IC50).

In turn, `NC1=NC(c2ccccc2)(c2cccc(Cc3ccc(F)cc3)c2)C2=NCCCN12` (stereo not shown) [Example 5, 8-[3-(4-Fluorobenzyl)phenyl]-8-phenyl-2,3,4,8-tetrahydroimidazo[1,5-a]pyrimidin-6-amine] displayed a melting point of 152 °C. The IC50 in data set [1] turned out to be 8.2 µM.

`NC1=NC(c2ccccc2)(c2cccc(C(F)(F)F)c2)C2=NCCCN12` (stereo not shown) [Example 6, 8-Phenyl-8-[3-(trifluoromethyl)phenyl]-2,3,4,8-tetrahydroimidazo[1,5-a]pyrimidin-6-amine]: the inhibition – broadly, the drop in the measured response relative to a control, in per cent – at 25 µM in data set [1] was determined as 48%.

For the compound `COc1cccc(C2(c3ccccc3)N=C(N)N3CCCN=C32)c1` (stereo not shown) [Example 7, 8-(3-Methoxyphenyl)-8-phenyl-2,3,4,8-tetrahydroimidazo[1,5-a]pyrimidin-6-amine], in data set [1], the inhibition at 25 µM is 49%.

Regarding `CCCOc1cccc(C2(c3ccc(OC)c(C)c3)N=C(N)N3CCN=C32)c1` (stereo not shown) [Example 8, 7-(4-Methoxy-3-methylphenyl)-7-(3-propoxyphenyl)-2,7-dihydro-3H-imidazo[1.5-a]imidazol-5-amine], the IC50 in data set [1] amounted to 0.4 µM.

In turn, `CCCOc1cccc(C2(c3ccc(OC)c(C)c3)N=C(N)N3CCCN=C32)c1` (stereo not shown) [Example 9, 8-(4-Methoxy-3-methylphenyl)-8-(3-propoxyphenyl)-2,3,4,8-tetrahydroimidazo[1,5-a]pyrimidin-6-amine] showed an IC50 in data set [1] of 0.3 µM.

In turn, `CCCOc1cccc(C2(c3ccc(OC)c(C)c3)N=C(N)N3CC(C)(C)CN=C32)c1` (stereo not shown) [Example 10, 8-(4-Methoxy-3-methylphenyl)-3,3-dimethyl-8-(3-propoxyphenyl)-2,3,4,8-tetrahydroimidazo[1,5-a]pyrimidin-6-amine] had an IC50 in data set [1] of 1.1 µM.

In the case of `NC1=NC(c2ccc(OC(F)(F)F)cc2)(c2cccc(CCC3CC3)c2)C2=NCCCN12` (stereo not shown) [Example 12, 8-[3-(2-Cyclopropyl-ethyl)-phenyl]-8-(4-trifluoromethoxy-phenyl)-2,3,4,8-tetrahydro-imidazo[1,5-a]pyrimidin-6-ylamine], the melting point was 65 to 77 °C. For the same compound, in data set [1], the midpoint of inhibition, the IC50, lay at 0.21 µM.

`C=CCc1cccc(C2(c3ccc(OC(F)(F)F)cc3)N=C(N)N3CCCN=C32)c1` (stereo not shown) [Example 13, 8-(3-Allylphenyl)-8-(4-trifluoromethoxyphenyl)-2,3,4,8-tetrahydro-imidazo[1,5-a]pyrimidin-6-ylamine] displayed a melting point of 89 to 111 °C. Moreover, the inhibition at 5 µM in data set [1] (read-out: BACE1 % inhibition at 5 μM, at 5 μM inhibitor) was 53%.

Regarding `CCCc1cccc(C2(c3ccc(OC(F)(F)F)cc3)N=C(N)N3CCCN=C32)c1` (stereo not shown) [Example 14, 8-(3-Propyl-phenyl)-8-(4-trifluoromethoxy-phenyl)-2,3,4,8-tetrahydro-imidazo[1,5-a]pyrimidin-6-ylamine], the melting point was 75 to 79 °C. The half-maximal inhibitory concentration (IC50) in data set [1] is 1.43 µM.

With `CCNC(=O)c1cccc(C2(c3ccc(OC(F)(F)F)cc3)N=C(N)N3CCCN=C32)c1` (stereo not shown) [Example 15, 3-[6-Amino-8-(4-trifluoromethoxy-phenyl)-2,3,4,8-tetrahydroimidazo[1,5-a]pyrimidin-8-yl]-N-ethyl-benzamide], the melting point was 129 to 136 °C. In addition, the inhibition at 0.5 µM in data set [1] (read-out: BACE1 % inhibition at 0.5 μM, at 0.5 μM inhibitor) turned out to be 40%.

For the compound `CCC(=O)Nc1cccc(C2(c3ccc(OC(F)(F)F)cc3)N=C(N)N3CCCN=C32)c1` (stereo not shown) [Example 16, N-{3-[6-Amino-8-(4-trifluoromethoxy-phenyl)-2,3,4,8-tetrahydroimidazo[1,5-a]pyrimidin-8-yl]-phenyl}-propionamide hydrochloride], the inhibition at […] in data set [1] (read-out: BACE1 % inhibition at […], at 2.5 μM inhibitor) was found to be 43%.
